Where two headings read alike, the source gives them in different places.
Columns and labels:
[1] = test system: strains with impermeability-mediated resistance (IR); format: cell-based, Enterobacteriaceae; details: Ex 2, MIC in mg/l
Source text: Optimization of the Detection Specificity by Introducing Specific Inhibitors Inhibition of Class B Strains (NDM, VIM, IMP) by Adding EDTA
Identical to that used to determine the temocillin MICs by agar dilution (example 1).
For each temocillin concentration, the following concentrations of active EDTA will be tested in the form of disodium EDTA: 0, 1.77, 2.12, 2.47 and 2.83 mmol/l.
Method: identical to the method used in example 1.

[2] = test system: OXA-48 strains; assay: Prototype medium, strains detected (Example 3); format: cell-based, Enterobacteriaceae; details: 24 hours of incubation
Method: The media are prepared in 55 mm diameter Petri dishes. They are inoculated using a bacterial suspension in physiological saline at 0.5 McF for the non-OXA-48 strains and with a 1/100 and 1/10 000 dilution of a suspension at 0.5 McF for the OXA-48 strains. The inoculation consists of 3-quadrant streaking using a 10 μl calibrated loop: theoretical deposit of 10^4 or 10^2 CFU for the OXA-48 strains and of 10^6 CFU for the strains not producing OXA-48.
The media are incubated at 37° C. The readings will be carried out after 18 and 24 hours of incubation.
The growth density, the colony sizes and also the coloration (color and strength) are evaluated.
Reaction medium identical to the base used for example 1. A selective system comprising a mixture of antibiotics and antifungals which is specific for Gram-positives, yeasts and Gram-negatives which are non-fermenting, and also cloxacillin and EDTA, is also added.
A medium at 200 mg/l of temocillin is tested without selective system as indicated above.

[3] = test system: AmpC strains; assay: Temocillin MIC, agar dilution (Example 1); format: cell-based, Enterobacteriaceae; details: Ex 1; temocillin alone; MIC in mg/l
Method: (§1) Determination of the MICs with Respect to Temocillin for a Panel of CPE Strains (Using the Agar Dilution Method)
(§2) Reaction medium: the base is a chromLD™ CPS medium (bioMérieux, ref. 43821-43829), comprising a chromogenic substrate for beta-glucuronidase, a chromogenic substrate for beta-glucosidase, a chromogenic substrate for beta-galactosidase and a substrate for deaminase. Temocillin is added to this base medium at the concentrations indicated hereinafter.
(§3) Temocillin range tested: 50-150-200-300 mg/l (disodium temocillin, Eumedica SA, Manage, Belgium).
(§4) The media are inoculated by depositing a spot: 1 μl of a microbial suspension in physiological saline at 0.5 McF, diluted to 1/10.
(§5) Incubation for 24 h at 37° C.
(§6) Reading after incubation for 24 hours. The medium with the smallest temocillin concentration on which a negative growth spot is obtained will be retained as the MIC. The spots having only 3 colonies or less or a total absence of growth were considered to be negative.

[4] = test system: BLSE strains; assay: Temocillin MIC, agar dilution (Example 1); format: cell-based, Enterobacteriaceae; details: Ex 1; temocillin alone; MIC in mg/l
Method: as §1, §2, §3, §4, §5, §6

[5] = test system: IMP strains; assay: Temocillin MIC, agar dilution (Example 1); format: cell-based, Enterobacteriaceae; details: Ex 1; temocillin alone; MIC in mg/l
Method: as §1, §2, §3, §4, §5, §6

[6] = test system: KPC strains; assay: Temocillin MIC, agar dilution (Example 1); format: cell-based, Enterobacteriaceae; details: Ex 1; temocillin alone; MIC in mg/l
Method: as §1, §2, §3, §4, §5, §6

[7] = test system: NDM-1 strains; assay: Temocillin MIC, agar dilution (Example 1); format: cell-based, Enterobacteriaceae; details: Ex 1; temocillin alone; MIC in mg/l
Method: as §1, §2, §3, §4, §5, §6

[8] = test system: Non-OXA-48 strains; assay: Temocillin MIC, agar dilution (Example 1); format: cell-based, Enterobacteriaceae
Method: as §1, §2, §3, §4, §5, §6

[9] = test system: OXA-48 strains; assay: Temocillin MIC, agar dilution (Example 1); format: cell-based, Enterobacteriaceae
Method: as §1, §2, §3, §4, §5, §6

[10] = test system: VIM strains; assay: Temocillin MIC, agar dilution (Example 1); format: cell-based, Enterobacteriaceae; details: Ex 1; temocillin alone; MIC in mg/l
Method: as §1, §2, §3, §4, §5, §6

[11] = test system: strains with impermeability-mediated resistance to carbapenems (IR); assay: Temocillin MIC, agar dilution (Example 1); format: cell-based, Enterobacteriaceae; details: Ex 1; temocillin alone; MIC in mg/l
Method: as §1, §2, §3, §4, §5, §6

[12] = test system: strains with a metallo-carbapenemase; details: Livermore et al.; cited from earlier work
[13] = test system: KPC, AmpC and MBL strains; details: disk comprising 30 μg of temocillin; Rosco; cited from earlier work
[14] = Ex 1, temocillin alone, MIC in mg/l

In the case of `CO[C@@]1(NC(=O)C(C(=O)O)c2ccsc2)C(=O)N2[C@@H](C(=O)O)C(C)(C)S[C@@H]21` (stereo partly shown) [temocillin], the “No. of IR strains with MIC 150” value ([1]; 0 mmol/l of EDTA) is reported as 2, the “No. of IR strains with MIC 200” value ([1]; 0 mmol/l of EDTA) is reported as 0 and the “No. of IR strains with MIC 300” value ([1]; 0 mmol/l of EDTA) is reported as 0. The “No. of IR strains with MIC >300” value ([1]; 0 mmol/l of EDTA) was 0, the “No. of IR strains with MIC ≦50” value ([1]; 0 mmol/l of EDTA) was 8 and the “No. of IR strains with MIC 150” value ([1]; 1.77 mmol/l of active EDTA) was 4. For the same molecule, the “No. of IR strains with MIC 200” value ([1]; 1.77 mmol/l of active EDTA) was 1, the “No. of IR strains with MIC 300” value ([1]; 1.77 mmol/l of active EDTA) was 1 and the “No. of IR strains with MIC >300” value ([1]; 1.77 mmol/l of active EDTA) was 0. The “No. of IR strains with MIC ≦50” value ([1]; 1.77 mmol/l of active EDTA) was 4, the “No. of IR strains with MIC 150” value ([1]; 2.12 mmol/l of active EDTA) was 3 and the “No. of IR strains with MIC 200” value ([1]; 2.12 mmol/l of active EDTA) was 2. The “No. of IR strains with MIC 300” value ([1]; 2.12 mmol/l of active EDTA) was 1, the “No. of IR strains with MIC >300” value ([1]; 2.12 mmol/l of active EDTA) was 0 and the “No. of IR strains with MIC ≦50” value ([1]; 2.12 mmol/l of active EDTA) was 4. The “No. of IR strains with MIC 150” value ([1]; 2.47 mmol/l of active EDTA) was 2, the “No. of IR strains with MIC 200” value ([1]; 2.47 mmol/l of active EDTA) was 2 and the “No. of IR strains with MIC 300” value ([1]; 2.47 mmol/l of active EDTA) was 0. The “No. of IR strains with MIC >300” value ([1]; 2.47 mmol/l of active EDTA) was 0, the “No. of IR strains with MIC ≦50” value ([1]; 2.47 mmol/l of active EDTA) was 6 and the “No. of IR strains with MIC 150” value ([1]; 2.83 mmol/l of active EDTA) was 3. The “No. of IR strains with MIC 200” value ([1]; 2.83 mmol/l of active EDTA) was 1, the “No. of IR strains with MIC 300” value ([1]; 2.83 mmol/l of active EDTA) was 0 and the “No. of IR strains with MIC >300” value ([1]; 2.83 mmol/l of active EDTA) was 0. For the same molecule, the “No. of IR strains with MIC ≦50” value ([1]; 2.83 mmol/l of active EDTA) was 6, the “No. of strains detected” value ([2]; OXA-48 deposit of 10^2 CFU, temocillin 200 mg/l without selective system) was 15/15 and the “No. of strains detected” value ([2]; OXA-48 deposit of 10^2 CFU, temocillin 200 mg/l) was 15/15. The “No. of strains detected” value ([2]; OXA-48 deposit of 10^2 CFU, temocillin 300 mg/l) was 15/15, the “No. of strains detected” value ([2]; OXA-48 deposit of 10^2 CFU, temocillin 500 mg/l) was 9/15 and the “No. of strains detected” value ([2]; OXA-48 deposit of 10^4 CFU, temocillin 200 mg/l without selective system) was 15/15. For the same molecule, the “No. of strains detected” value ([2]; OXA-48 deposit of 10^4 CFU, temocillin 200 mg/l) was 15/15, the “No. of strains detected” value ([2]; OXA-48 deposit of 10^4 CFU, temocillin 300 mg/l) was 15/15 and the “No. of strains detected” value ([2]; OXA-48 deposit of 10^4 CFU, temocillin 400 mg/l) was 15/15. The “No. of strains detected” value ([2]; OXA-48 deposit of 10^4 CFU, temocillin 500 mg/l) was 12/15, the “No. of AmpC strains with MIC 150” value [3] was 0 and the “No. of AmpC strains with MIC 200” value [3] was 0. For the same molecule, the “No. of AmpC strains with MIC 300” value [3] was 0, the “No. of AmpC strains with MIC >300” value [3] was 0 and the “No. of AmpC strains with MIC ≦50” value [3] was 10. For the same molecule, the “No. of BLSE strains with MIC 150” value [4] was 0, the “No. of BLSE strains with MIC 200” value [4] was 0 and the “No. of BLSE strains with MIC 300” value [4] was 0. For the same molecule, the “No. of BLSE strains with MIC >300” value [4] was 2, the “No. of BLSE strains with MIC ≦50” value [4] was 8 and the “No. of IMP strains with MIC 150” value [5] was 0. For the same molecule, the “No. of IMP strains with MIC 200” value [5] was 0, the “No. of IMP strains with MIC 300” value [5] was 0 and the “No. of IMP strains with MIC >300” value [5] was 1. For the same molecule, the “No. of IMP strains with MIC ≦50” value [5] was 12, the “No. of KPC strains with MIC 150” value [6] was 1 and the “No. of KPC strains with MIC 200” value [6] was 0. The “No. of KPC strains with MIC 300” value [6] was 0, the “No. of KPC strains with MIC >300” value [6] was 3 and the “No. of KPC strains with MIC ≦50” value [6] was 8. The “No. of NDM-1 strains with MIC 150” value [7] was 1, the “No. of NDM-1 strains with MIC 200” value [7] was 0 and the “No. of NDM-1 strains with MIC 300” value [7] was 0. The “No. of NDM-1 strains with MIC >300” value [7] was 0, the “No. of NDM-1 strains with MIC ≦50” value [7] was 25 and the MIC ([8]; most of the non-OXA-48 strains) was at most 200 µg/mL. The MIC ([8]; only a few non-OXA-48 strains) was over 300 µg/mL, the MIC [9] was over 300 µg/mL and the “No. of OXA-48 strains with MIC 150” value [9, 14] was 0. For the same molecule, the “No. of OXA-48 strains with MIC 200” value [9, 14] was 0, the “No. of OXA-48 strains with MIC 300” value [9, 14] was 0 and the “No. of OXA-48 strains with MIC >300” value [9, 14] was 15. The “No. of OXA-48 strains with MIC ≦50” value [9, 14] was 1, the “No. of VIM strains with MIC 150” value [10] was 5 and the “No. of VIM strains with MIC 200” value [10] was 1. The “No. of VIM strains with MIC 300” value [10] was 0, the “No. of VIM strains with MIC >300” value [10] was 1 and the “No. of VIM strains with MIC ≦50” value [10] was 9. For the same molecule, the “No. of IR strains with MIC 150” value [11] was 2, the “No. of IR strains with MIC 200” value [11] was 0 and the “No. of IR strains with MIC 300” value [11] was 0. The “No. of IR strains with MIC >300” value [11] was 0, the “No. of IR strains with MIC ≦50” value [11] was 8 and the “strains resistant to temocillin” value [12] was 32/35. For the same molecule, the “inhibition of strains by temocillin disk” value [13] was “does not inhibit all KPC, AmpC and MBL strains”.

From patent US9562899B2, “Method of detecting OXA-048 carbapenemase producing bacteria” (BIOMÉRIEUX, priority 2012, dated 2017)
